Reference: patent US10822327B2, “2-substituted aromatic ring-pyrimidine derivative and preparation and application thereof” (ZHEJIANG UNIVERSITY, priority 2016, dated 2020)

Key:
Chk1 protein kinase = biological target: T1, Chk1 protein kinase (Homo sapiens, UniProt O14757); assay: Chk1 enzyme inhibitory activity, ADP-Glo kit; type: biochemical; conditions: bounds, unit μM
T1 sequence (O14757 1-476): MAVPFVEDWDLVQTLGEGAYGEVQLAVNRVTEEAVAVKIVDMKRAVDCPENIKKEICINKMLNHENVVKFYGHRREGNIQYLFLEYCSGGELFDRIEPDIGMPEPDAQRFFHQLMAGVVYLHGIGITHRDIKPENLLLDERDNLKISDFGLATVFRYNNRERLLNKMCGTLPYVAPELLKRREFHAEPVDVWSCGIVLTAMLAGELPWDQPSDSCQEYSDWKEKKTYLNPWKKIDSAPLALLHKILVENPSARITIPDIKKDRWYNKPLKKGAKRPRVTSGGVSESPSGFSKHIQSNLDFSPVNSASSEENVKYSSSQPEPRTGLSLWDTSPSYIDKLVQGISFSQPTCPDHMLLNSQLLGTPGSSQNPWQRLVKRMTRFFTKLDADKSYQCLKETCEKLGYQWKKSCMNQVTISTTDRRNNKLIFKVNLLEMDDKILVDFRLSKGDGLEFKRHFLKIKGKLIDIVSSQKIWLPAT
Protocol: Saurosporine is used as a positive control, the Chk1 enzyme inhibitory activity (IC50) was evaluated using the ADP-Glo kit. […] The phosphorylation process consumes ATP. After the reaction, ADP-Glo™ Reagent consumes the remaining ATP, wherein ADP produced during the reaction can be transformed to ATP by ADP-Glo Detection Reagent. ATP acts as a substrate for the Ultra-Glo™ luciferase catalytic reaction, producing an optical signal. The test compound was dissolved in DMSO to prepare a 10 mM stock solution and diluted to 12 different concentrations in a certain ratio for testing. 1 μL of the test compound and 2 μL of 2.5× Chk1 kinase were added to each well of a 384-well plate, and 2 μL of 1× buffer was added to the control group. After incubation for 10 min at room temperature, 2 μL of 2.5× substrate was added. Ater incubation for 1 h at 37° C., 5 μL. of ADP-Glo™ Reagent was added and the reaction was stopped before incubating again for 1 h at 37° C. 10 μL of ADP-Glo Detection Reagent was added before incubating for 30 min at 37° C., and three parallel wells were set for each sample. […] by luminescence fluorescence microplate reader, and data were calculated using GraphPad Prism 5 software to calculate IC50 values.

[1] = system: human prostate cancer cell LnCAP; assay: MTS in vitro proliferation inhibition, LnCAP; type: cell-based; conditions: 72 hours, average of three experiments
Excerpt: (§1) Cell lines: human multiple myeloma cells RPMI 8226, human mantle cell lymphoma cells Mino, Jeko-1, human lymphoma cells Romas, human acute monocytic leukemia cells MV-4-11, human breast cancer cells MCF-7 Human lung cancer cell A549, human prostate cancer cell LnCAP, human gastric cancer cell BGC-823, human colon cancer cell HCT116, Colo205, and human ovarian cancer cell OVCAR-8. Experimental method: using MTS method for in vitro proliferation Inhibitory activity (IC50) of compounds against different tumor cell lines.
(§2) The cells in the logarithmic growth phase were trypsinized, counted, and seeded at a density of 1×10^4 cells/well in a 96-well plate at 100 μL per well before placing in a 37° C. incubator containing 5% CO2 overnight. Six concentration gradients were set for each compound, and three sets of duplicate wells were set for each concentration. After the addition, the cells were cultured for 72 hours, and 20 μL of MTS was added. After incubating for 2 hours at 37° C., the absorbance at 490 nm (L1) was measured with a SpectraMAX 340 microplate reader. The reference wavelength was 690 nm (L2), and the (L1-L2) value was plotted against the different concentrations of the inhibitor. The half inhibitory concentration IC50 was fitted by the formula.

[2] = system: human colon cancer cell Colo205; assay: MTS in vitro proliferation inhibition, Colo205; type: cell-based; conditions: COLO 205, 72 hours, average of three experiments
Excerpt: as §1, §2

[3] = system: human mantle cell lymphoma cells Jeko-1; assay: MTS in vitro proliferation inhibition, Jeko-1; type: cell-based; conditions: 72 hours, average of three experiments
Excerpt: as §1, §2

[4] = system: human lymphoma cells Romas; assay: MTS in vitro proliferation inhibition, Romas; type: cell-based; conditions: 72 hours, average of three experiments
Excerpt: as §1, §2

[5] = system: human acute monocytic leukemia cells MV-4-11; assay: MTS in vitro proliferation inhibition, MV-4-11; type: cell-based; conditions: MV4-11, 72 hours, average of three experiments
Excerpt: as §1, §2

[6] = system: human ovarian cancer cell OVCAR-8; assay: MTS in vitro proliferation inhibition, OVCAR-8; type: cell-based; conditions: 72 hours, average of three experiments
Excerpt: as §1, §2

[7] = system: human mantle cell lymphoma cells Mino; assay: MTS in vitro proliferation inhibition, Mino; type: cell-based; conditions: 72 hours, average of three experiments
Excerpt: as §1, §2

[8] = system: human gastric cancer cell BGC-823; assay: MTS in vitro proliferation inhibition, BGC-823; type: cell-based; conditions: 72 hours, average of three experiments
Excerpt: as §1, §2

[9] = system: human breast cancer cells MCF-7; assay: MTS in vitro proliferation inhibition, MCF-7; type: cell-based; conditions: MCF7, 72 hours, average of three experiments
Excerpt: as §1, §2

[10] = system: human colon cancer cell HCT116; assay: MTS in vitro proliferation inhibition, HCT116; type: cell-based; conditions: HCT-116, 72 hours, average of three experiments
Excerpt: as §1, §2

[11] = system: human multiple myeloma cells RPMI 8226; assay: MTS in vitro proliferation inhibition, RPMI 8226; type: cell-based; conditions: 72 hours, average of three experiments, read-out: IC50(μM) RPMI8226
Excerpt: as §1, §2

[12] = system: Human lung cancer cell A549; assay: MTS in vitro proliferation inhibition, A549; type: cell-based; conditions: 72 hours, average of three experiments
Excerpt: as §1, §2

Cc1cc(Nc2ncc(-c3cnn(C)c3)c(NC3CCNCC3)n2)n[nH]1 [Compound 1, 5-(1-methyl-1H-pyrazol-4-yl)-N^2-(3-methylpyrazol-5-yl)-N^4-(piperidin-4-yl)-2,4-diaminopyrimidine]
IC50 (Chk1 protein kinase): > 10 µM

Cc1cc(Nc2ncc(-c3cnn(C)c3)c(NC3CCNCC3)n2)no1 [Compound 2, 5-(1-methyl-1H-pyrazol-4-yl)-N^2-(5-methyloxazol-3-yl)-N^4-(piperidin-4-yl)-2,4-diaminopyrimidine]
IC50 (Chk1 protein kinase): > 10 µM

Cc1cc(Nc2ncc(-c3cccs3)c(NC3CCNCC3)n2)n[nH]1 [Compound 3, 5-(thien-2-yl)-N^2-(5-methylpyrazol-3-yl)-N^4-(piperidin-4-yl)-2,4-diaminopyrimidine]
IC50 (Chk1 protein kinase): > 10 µM

Cc1cc(Nc2ncc(-c3cccs3)c(NC3CCNCC3)n2)no1 [Compound 4, 5-(thien-2-yl)-N^2-(5-methyloxazol-3-yl)-N^4-(piperidin-4-yl)-2,4-diaminopyrimidine]
IC50 (Chk1 protein kinase): > 10 µM

Cc1cc(Nc2ncc(-c3ccco3)c(NC3CCNCC3)n2)n[nH]1 [Compound 5, 5-(furan-2-yl)-N^2-(5-methylpyrazol-3-yl)-N^4-(piperidin-4-yl)-2,4-diaminopyrimidine]
IC50 (Chk1 protein kinase): > 10 µM

Cc1cc(Nc2ncc(-c3ccco3)c(NC3CCNCC3)n2)no1 [Compound 6, 5-(furan-2-yl)-N^2-(5-methyloxazol-3-yl)-N^4-(piperidin-4-yl)-2,4-diaminopyrimidine]
IC50 (Chk1 protein kinase): > 10 µM

N#Cc1ccc(Nc2ncc(-c3ccco3)c(NC3CCNCC3)n2)cn1 [Compound 17, 5-(furan-2-yl)-N^2-(2-cyanopyridin-5-yl)-N^4-(piperidin-4-yl)-2,4-diaminopyrimidine]
IC50 [1]: 1.44 µM | IC50 [2]: 2.77 µM | IC50 [3]: 0.342 µM | IC50 [4]: 0.536 µM | IC50 [5]: 0.044 µM | IC50 [6]: 4.71 µM | IC50 [7]: 0.708 µM | IC50 [8]: 3.17 µM | IC50 [9]: 1.8 µM | IC50 [10]: 2.68 µM | IC50 [11]: 3.34 µM | IC50 [12]: 0.774 µM

Cn1cc(-c2cnc(Nc3ccc(C#N)nc3)nc2N[C@H]2CCCNC2)cn1 [Compound 21, (S)-5-(1-methyl-1H-pyrazol-4-yl)-N^2-(2-cyanopyridin-5-yl)-N^4-(piperidin-3-yl)-2,4-diaminopyrimidine]
IC50 [1]: 0.842 µM | IC50 [2]: 1.54 µM | IC50 [3]: 0.253 µM | IC50 [4]: 0.401 µM | IC50 [5]: 0.035 µM | IC50 [6]: 3.24 µM | IC50 [7]: 0.608 µM | IC50 [8]: 2.11 µM | IC50 [9]: 2.56 µM | IC50 [10]: 1.39 µM | IC50 [11]: 3.6 µM | IC50 [12]: 1.02 µM

Cn1cc(-c2cnc(Nc3ccc(C#N)cn3)nc2NC2CCNCC2)cn1 [Compound 26, 5-(1-methyl-1H-pyrazol-4-yl)-N^2-(3-cyanopyridin-6-yl)-N^4-(piperidin-4-yl)-2,4-diaminopyrimidine]
IC50 (Chk1 protein kinase): > 10 µM

Cn1cc(-c2cnc(Nc3cnc(C#N)cn3)nc2NC2CCNCC2)cn1 [Compound 27, 5-(1-methyl-1H-pyrazol-4-yl)-N^2-(2-cyanopyrazin-5-yl)-N^4-(piperidin-4-yl)-2,4-diaminopyrimidine]
IC50 (Chk1 protein kinase): > 10 µM

N#Cc1ccc(Nc2ncc(Br)cn2)cn1 [Compound 30, 5-bromo-N-(2-cyanopyridin-5-yl)-2-aminopyrimidine]
IC50 (Chk1 protein kinase): > 10 µM

N#Cc1ccc(Nc2ncc(-c3ccccc3N)cn2)cn1 [Compound 31, 5-(2-aminophenyl)-N-(2-cyanopyridin-5-yl)-2-aminopyrimidine]
IC50 (Chk1 protein kinase): > 10 µM

N#Cc1ccc(Nc2ncc(-c3ccccc3NCC3CCNCC3)cn2)cn1 [Compound 33, 5-(2-(piperidin-4-methyl)aminophenyl)-N-(2-cyanopyridin-5-yl)-2-aminopyrimidine]
IC50 (Chk1 protein kinase): > 10 µM

N#Cc1ccc(Nc2ncc(C(F)(F)F)c(NCC3CCNCC3)n2)cn1 [Compound 34, 5-trifluoromethyl-N^2-(2-cyanopyridin-5-yl)-N^4-(piperidin-4-methyl)-2,4-diaminopyrimidine]
IC50 (Chk1 protein kinase): < 1 µM

N#Cc1ccc(Nc2ncc(C(F)(F)F)c(NC3CCNCC3)n2)cn1 [Compound 35, 5-trifluoromethyl-N^2-(2-cyanopyridin-5-yl)-N^4-(piperidin-4-yl)-2,4-diaminopyrimidine]
IC50 (Chk1 protein kinase): < 1 µM

N#Cc1ccc(Nc2ncc(C(F)(F)F)c(N[C@@H]3CCCNC3)n2)cn1 [Compound 36, (R)-5-trifluoromethyl-N^2-(2-cyanopyridin-5-yl)-N^4-(piperidin-3-yl)-2,4-diaminopyrimidine]
IC50 (Chk1 protein kinase): < 1 µM
